Experimental data reported in the NIST ThermoML archive (doi:10.1021/acs.jced.7b01053).
“And” between values parts separate entries of the source, which are not always exact repeats. Equal entries are not always repeated.

Test: mn = molality of the nth substance listed, in mol/kg
Conditions: 293 K, 100 kPa, Liquid, Alternating current cell with electrodes

CC(=O)[O-].OCC[NH2+]CCO [2,2'-azanediylbis(ethanol) acetate] + O
Conditions	electrical conductivity
m1 = 0.02102	0.103 S/m
m1 = 0.02229	0.092 S/m
m1 = 0.0413	0.189 S/m
m1 = 0.04556	0.185 S/m
m1 = 0.06489	0.299 S/m
m1 = 0.06982	0.299 S/m
m1 = 0.08642	0.38 S/m
m1 = 0.0929	0.387 S/m
m1 = 0.11	0.471 S/m
m1 = 0.1182	0.481 S/m
m1 = 0.133	0.551 S/m
m1 = 0.1442	0.574 S/m
m1 = 0.1566	0.637 S/m
m1 = 0.17	0.664 S/m
m1 = 0.1784	0.715 S/m
m1 = 0.1932	0.749 S/m
m1 = 0.2015	0.79 S/m
m1 = 0.2176	0.822 S/m
m1 = 0.2233	0.87 S/m
m1 = 0.2404	0.892 S/m
m1 = 0.2459	0.947 S/m
m1 = 0.2633	0.966 S/m
m1 = 0.2671	1.01 S/m
m1 = 0.2853	1.03 S/m
m1 = 0.2885	1.08 S/m
m1 = 0.3076	1.11 S/m
m1 = 0.3083	1.14 S/m
m1 = 0.3285	1.16 S/m and 1.2 S/m
m1 = 0.3471	1.26 S/m
m1 = 0.3495	1.22 S/m
m1 = 0.3658	1.32 S/m
m1 = 0.3689	1.27 S/m
m1 = 0.3832	1.37 S/m
m1 = 0.3886	1.33 S/m
m1 = 0.4004	1.42 S/m
m1 = 0.4068	1.38 S/m
m1 = 0.4163	1.46 S/m
m1 = 0.4248	1.43 S/m
m1 = 0.4322	1.51 S/m
m1 = 0.4417	1.47 S/m
m1 = 0.4472	1.55 S/m
m1 = 0.4583	1.51 S/m
m1 = 0.4617	1.59 S/m
m1 = 0.4738	1.56 S/m
m1 = 0.4751	1.64 S/m
m1 = 0.4881	1.68 S/m
m1 = 0.489	1.61 S/m
m1 = 0.5005	1.73 S/m
m1 = 0.5032	1.65 S/m
m1 = 0.5129	1.76 S/m
m1 = 0.5172	1.68 S/m
m1 = 0.5243	1.8 S/m
m1 = 0.5302	1.7 S/m
m1 = 0.5355	1.83 S/m
m1 = 0.5436	1.73 S/m
m1 = 0.5561	1.76 S/m

CCCC(=O)[O-].[NH3+]CCO [2-hydroxy ethylammonium butanoate] + O
Conditions	electrical conductivity [S/m]
m1 = 0.01855	0.092
m1 = 0.0207	0.107
m1 = 0.03507	0.163
m1 = 0.0415	0.196
m1 = 0.05678	0.264
m1 = 0.06247	0.295
m1 = 0.07651	0.338
m1 = 0.08283	0.372
m1 = 0.09713	0.41
m1 = 0.1049	0.449
m1 = 0.119	0.485
m1 = 0.1258	0.511
m1 = 0.1407	0.563
m1 = 0.1476	0.585
m1 = 0.1628	0.637
m1 = 0.1681	0.649
m1 = 0.184	0.709
m1 = 0.1888	0.711
m1 = 0.2055	0.77
m1 = 0.2087	0.764
m1 = 0.2251	0.834
m1 = 0.2284	0.81
m1 = 0.2448	0.894
m1 = 0.2469	0.857
m1 = 0.2626	0.946
m1 = 0.2654	0.9
m1 = 0.2809	0.994
m1 = 0.2825	0.94
m1 = 0.298	1.04
m1 = 0.3001	0.982
m1 = 0.3153	1.09
m1 = 0.3165	1.02
m1 = 0.331	1.12
m1 = 0.3327	1.06
m1 = 0.3468	1.17
m1 = 0.3475	1.09
m1 = 0.3613	1.2
m1 = 0.3622	1.12
m1 = 0.3758	1.15
m1 = 0.3759	1.23
m1 = 0.3892	1.27
m1 = 0.3894	1.18
m1 = 0.4021	1.2
m1 = 0.4023	1.3
m1 = 0.4144	1.23
m1 = 0.4145	1.32
m1 = 0.4231	1.34
m1 = 0.4259	1.25
m1 = 0.4344	1.36
m1 = 0.4374	1.27
m1 = 0.4449	1.39
m1 = 0.448	1.29
m1 = 0.4554	1.41
m1 = 0.4584	1.32
m1 = 0.4651	1.43
m1 = 0.4681	1.33
m1 = 0.4746	1.45
m1 = 0.4775	1.35
m1 = 0.4835	1.46
m1 = 0.4864	1.38
m1 = 0.4922	1.48
m1 = 0.495	1.4
m1 = 0.5005	1.5
m1 = 0.5032	1.41
m1 = 0.5085	1.52
m1 = 0.516	1.54
m1 = 0.5231	1.55

CCCCC(=O)[O-].[NH3+]CCO [2-hydroxy ethylammonium pentanoate] + O
Conditions	electrical conductivity [S/m]
m1 = 0.01913	0.108
m1 = 0.01918	0.068
m1 = 0.03718	0.19
m1 = 0.03781	0.126
m1 = 0.05621	0.26
m1 = 0.05801	0.176
m1 = 0.07457	0.309
m1 = 0.07759	0.244
m1 = 0.09498	0.365
m1 = 0.09926	0.296
m1 = 0.1135	0.412
m1 = 0.1187	0.344
m1 = 0.1336	0.48
m1 = 0.1402	0.393
m1 = 0.152	0.526
m1 = 0.1594	0.439
m1 = 0.1718	0.578
m1 = 0.1796	0.483
m1 = 0.1899	0.625
m1 = 0.1981	0.523
m1 = 0.2067	0.661
m1 = 0.2174	0.664
m1 = 0.224	0.701
m1 = 0.2348	0.597
m1 = 0.24	0.739
m1 = 0.2529	0.637
m1 = 0.2565	0.776
m1 = 0.2697	0.669
m1 = 0.272	0.809
m1 = 0.2867	0.704
m1 = 0.2875	0.844
m1 = 0.302	0.875
m1 = 0.3024	0.734
m1 = 0.3165	0.904
m1 = 0.3181	0.759
m1 = 0.3299	0.93
m1 = 0.3329	0.786
m1 = 0.3434	0.957
m1 = 0.3474	0.812
m1 = 0.3561	0.983
m1 = 0.3608	0.832
m1 = 0.3685	1.01
m1 = 0.3744	0.855
m1 = 0.38	1.03
m1 = 0.3866	0.876
m1 = 0.3914	1.05
m1 = 0.3988	0.895
m1 = 0.402	1.07
m1 = 0.4101	0.917
m1 = 0.4126	1.09
m1 = 0.4215	0.925
m1 = 0.4221	1.11
m1 = 0.4316	1.13
m1 = 0.4318	0.94
m1 = 0.4404	1.14
m1 = 0.4421	0.957
m1 = 0.4517	0.971
